The results in this text go back to PubChem BioAssay (NCI).

Some test systems named below: 786-0 renal; LOX IMVI melanoma; MDA-N; HOP-92 NSCLC; SR leukemia; MDA-MB-435; MOLT-4 leukemia; EKVX NSCLC; SN12C renal; CCRF-CEM leukemia; HCT-15 colon.
Holding throughout (assay): DTP human tumour cell line panel, 48 h

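How tested: cells in 96-well plates exposed to compound for 48 hours at five concentrations. TGI marks complete inhibition of growth.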 Where only a bound is given, the exact number is not on record here.

For orientation: TGI means the concentration at which net growth stops.

For the compound `OCC1OC(n2cnc3cccnc32)CC1O` (centres undefined), the TGI in the experiment on 786-0 renal, in the experiment with LOX IMVI melanoma, in the experiment with MDA-N, in the experiment on HOP-92 NSCLC, in the experiment with SR leukemia and with MDA-MB-435 was above 100 µM each time. Also, the TGI in the experiment on MOLT-4 leukemia, in the experiment on EKVX NSCLC, in the experiment with SN12C renal, with CCRF-CEM leukemia and in the experiment on HCT-15 colon was above 100 µM each time.

In the case of `CN(C(=O)C1(C(=O)C=[N+]=[N-])CC1)c1ccccc1`, the TGI with 786-0 renal, in the experiment with LOX IMVI melanoma, with MDA-N, in the experiment on SR leukemia, in the experiment with MDA-MB-435 and in the experiment with MOLT-4 leukemia was above 100 µM each time. For the same compound, the TGI in the experiment with EKVX NSCLC, in the experiment with SN12C renal, in the experiment on CCRF-CEM leukemia and with HCT-15 colon was above 100 µM throughout.

For `COC(=O)C(/C(=N/NC(=O)c1ccncc1)C(=O)Nc1ccccc1OC)c1nc2ccc(Cl)cc2[nH]c1=O` (centres undefined), the concentration for total growth inhibition (TGI) with 786-0 renal, in the experiment on LOX IMVI melanoma, in the experiment with MDA-N, with HOP-92 NSCLC, with SR leukemia and in the experiment on MDA-MB-435 was above 100 µM each time. The TGI in the experiment with MOLT-4 leukemia, in the experiment with EKVX NSCLC, in the experiment with SN12C renal and in the experiment on HCT-15 colon was above 100 µM throughout.

On to `C/C(=C/CO[Si](C)(C)C(C)(C)C)C(=O)N(C)c1ccccc1I`, for which the TGI turned out to be 31.7 µM in the experiment on 786-0 renal; 31.8 µM with LOX IMVI melanoma; 31.9 µM in the experiment on MDA-N; 22.5 µM in the experiment with HOP-92 NSCLC; 51.7 µM in the experiment with SR leukemia; 33.7 µM in the experiment on MDA-MB-435. The TGI in the experiment with MOLT-4 leukemia amounted to 72.9 µM; with EKVX NSCLC, 29.1 µM; in the experiment on SN12C renal it was 31.1 µM; in the experiment with CCRF-CEM leukemia, 43 µM; with HCT-15 colon, 34.5 µM.

Take `O=C1/C(=C/c2ccccc2)CCc2ccc(Cl)nc21`: the concentration for total growth inhibition (TGI) with 786-0 renal was 21.8 µM; with MDA-N it was 18.5 µM; with HOP-92 NSCLC, 38.8 µM; in the experiment on SR leukemia, 9.01 µM; in the experiment on MDA-MB-435, 30.4 µM; with MOLT-4 leukemia it was 5.93 µM. In addition, the TGI in the experiment with EKVX NSCLC amounted to 38.3 µM; in the experiment on SN12C renal it was 18.6 µM; in the experiment with CCRF-CEM leukemia, 5.75 µM; in the experiment on HCT-15 colon it was 11.4 µM.

Consider `CCOC(=O)c1nc2c3c(ncn2n1)Oc1c(c(-c2ccccc2)nn1-c1ccccc1)C3c1ccc(Cl)cc1` (centres undefined), for which the TGI with 786-0 renal, with LOX IMVI melanoma, in the experiment with MDA-N, in the experiment on HOP-92 NSCLC, in the experiment with SR leukemia and with MDA-MB-435 was above 100 µM each time. For the same compound, the TGI in the experiment with SN12C renal, in the experiment on CCRF-CEM leukemia and in the experiment on HCT-15 colon was above 100 µM throughout.

On to `COC(=O)C1=C(O)C(C(=O)OC)[C@@]2(O)[C@@H](C(=O)OC)C(c3ccc(OC(=O)/C(=C/c4ccc(Cl)cc4)c4ccc(Cl)cc4)cc3)C[C@@H]1[C@@H]2C(=O)OC` (some centres undefined), for which the TGI in the experiment with 786-0 renal is above 100 µM; in the experiment with LOX IMVI melanoma it was 38.1 µM; in the experiment on MDA-N, 51.9 µM; in the experiment on HOP-92 NSCLC it was above 100 µM; in the experiment on SR leukemia, above 100 µM; in the experiment with MDA-MB-435, above 100 µM. The TGI with MOLT-4 leukemia, in the experiment with EKVX NSCLC, with SN12C renal, in the experiment with CCRF-CEM leukemia and in the experiment on HCT-15 colon was above 100 µM in each case.

With `CC(=O)O[C@H]1C#C/C=C\C#CC[C@@H]2C(=O)N(C(=O)OC(C)(C)C)[C@@H]12`, the TGI is 51.7 µM with 786-0 renal; 45.3 µM in the experiment with LOX IMVI melanoma; above 100 µM with MDA-N; 96.8 µM in the experiment with HOP-92 NSCLC; above 100 µM in the experiment on SR leukemia; above 100 µM in the experiment with MDA-MB-435. For the same compound, the TGI in the experiment with MOLT-4 leukemia was above 53.5 µM; in the experiment on EKVX NSCLC, above 100 µM; in the experiment on SN12C renal, above 71.6 µM; in the experiment with CCRF-CEM leukemia, 6.77 µM; in the experiment on HCT-15 colon, 51.4 µM.

As to `O=C(c1ccc2ccccc2c1)C1S(=O)(=O)OCCOS1(=O)=O`, the TGI with 786-0 renal, with LOX IMVI melanoma, in the experiment on MDA-N, in the experiment with SR leukemia, in the experiment on MDA-MB-435 and in the experiment with MOLT-4 leukemia was above 100 µM in each case. Moreover, the TGI with EKVX NSCLC, with SN12C renal, in the experiment on CCRF-CEM leukemia and with HCT-15 colon was above 100 µM throughout.

As for `CCCCC[C@@H]1OCO[C@@]2(C)/C=C(C)/C=C/C(=O)O[C@H]([C@@H](C)[C@@H](O)[C@H](C)[C@@]3(O)C[C@@H](O[C@H]4C[C@@H](O)[C@H](O)[C@@H](C)O4)[C@H](C)[C@@H](C)O3)[C@@H](OC)/C=C/C=C(\C)C[C@@H]1[C@@H]2O` (stereo in doubt), the concentration for total growth inhibition (TGI) is 0.676 µM in the experiment on 786-0 renal; 0.203 µM with MDA-N; 0.0992 µM with HOP-92 NSCLC; below 0.005 µM with SR leukemia; 0.541 µM in the experiment with MDA-MB-435; 0.809 µM in the experiment on MOLT-4 leukemia. Besides, the concentration for total growth inhibition (TGI) with EKVX NSCLC worked out at 3.07 µM; with SN12C renal, 3.49 µM; with CCRF-CEM leukemia, 0.455 µM; in the experiment on HCT-15 colon, 7.17 µM.

Take `Cc1cc2ccccc2c[n+]1CC(O)C[n+]1cc2ccccc2cc1C`: the TGI in the experiment with 786-0 renal, in the experiment with LOX IMVI melanoma, in the experiment on MDA-N, in the experiment with HOP-92 NSCLC, with SR leukemia and with MDA-MB-435 was above 100 µM throughout. Further, the concentration for total growth inhibition (TGI) in the experiment with MOLT-4 leukemia, with EKVX NSCLC, in the experiment on SN12C renal and in the experiment on HCT-15 colon was above 100 µM throughout.

As for `Cc1cc2ccccc2n1CC(=O)NCC(C)C`, the TGI in the experiment with 786-0 renal, in the experiment with LOX IMVI melanoma, with MDA-N, with HOP-92 NSCLC, in the experiment with SR leukemia and with MDA-MB-435 was above 100 µM each time. In addition, the TGI in the experiment on MOLT-4 leukemia, in the experiment on EKVX NSCLC, in the experiment with SN12C renal, in the experiment on CCRF-CEM leukemia and with HCT-15 colon was above 100 µM throughout.
